Test system: synthetic vesicles of sizes 100 nm and 400 nm
Assay: Cosedimentation assay of MARCKS-ED with synthetic vesicles
Type: binding
Description: In another exemplary method, lipid vesicles were employed to the curvature-sensing behavior of the MARCKS derived peptides with various sizes and lipid components. The membrane curvature is defined as the reciprocal of the diameter of a particular particle, e.g., smaller-sized vesicles present highly curved membrane bilayers. A series of lipid models were made to represent various lipid components that closely resemble the lipid composition of biological membranes. […] Dynamic light scattering (DLS) and negative-stain transmission electron microscopy (TEM) were performed to confirm the different vesicle sizes following the pressure-controlled extrusion process through different membrane diameter pores. Commercial polystyrene beads were used as the calibration standard for the vesicle size validation experiments. Furthermore, a time-course experiment was carried out to confirm the stability of the vesicles up to 16 hours. Three different membrane diameters were extruded for the following biophysical characterizations: 30 nm, 100 nm, 400 nm, reflecting different membrane curvatures.
In another exemplary method, a cosedimentation assay was performed to test the size differentiation behavior of MARCKS-ED. Two vesicle pore sizes, 100 and 400 nm, were used in this experiment because vesicles smaller than 100 nm were difficult to pellet even at high centrifugation speed. MARCKS-ED (10 μM) was incubated with 600 μM synthetic vesicles of sizes 100 nm and 400 nm. The positive control was the intact C2A-C2B cytoplasmic domains (C2AB) of rat Synaptotamin-1 (a.a. 96-421). C2AB (1.5 μM) was treated with CaCl2 (1 mM) and incubated with 300 μM synthetic vesicles of sizes 100 nm and 400 nm. C2AB treated with vesicles was incubated at room temperature for 30 minutes, followed by centrifugation of 65,000 rpm for 45 minutes at 20° C. MARCKS-ED treated with vesicles was incubated at room temperature for 2 hours, followed by 75,000 rpm for 45 minutes at 20° C. […]

KKKKKRFSFKKSFKLSGFSFKKNKK [MARCKS-ED]
pull-down by lipid vesicles without PS: less MARCKS-ED was pulled down
pull-down by 100 nm vs 400 nm PS-containing vesicles (gel electrophoresis of supernatant and pellet): binds more tightly to highly curved vesicles containing PS

Reference: patent US20150093333A1, “COMPOSITIONS, METHODS AND USES FOR PEPTIDES IN DIAGNOSIS, PROGRESSION AND TREATMENT OF CANCERS” (THE REGENTS OF THE UNIVERSITY OF COLORADO, body corporate, priority 2003, published 2015)
